The structures appear in SMILES notation.

T1 sequence (O60427 whole entry, species assumed): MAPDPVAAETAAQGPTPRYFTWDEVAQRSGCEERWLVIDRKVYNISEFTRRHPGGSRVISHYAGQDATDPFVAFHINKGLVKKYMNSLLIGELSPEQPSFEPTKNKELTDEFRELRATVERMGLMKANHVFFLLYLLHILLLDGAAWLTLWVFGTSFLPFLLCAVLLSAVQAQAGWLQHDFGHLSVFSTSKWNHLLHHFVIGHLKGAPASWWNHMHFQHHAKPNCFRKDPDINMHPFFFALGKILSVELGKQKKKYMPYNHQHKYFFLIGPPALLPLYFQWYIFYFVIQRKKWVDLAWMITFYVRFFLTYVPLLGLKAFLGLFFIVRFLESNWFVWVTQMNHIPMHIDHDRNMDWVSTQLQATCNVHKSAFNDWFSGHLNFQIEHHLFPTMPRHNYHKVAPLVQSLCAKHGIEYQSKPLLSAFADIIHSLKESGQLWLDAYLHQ

The assay addresses T1, Delta-5-Desaturase (D5D), membrane preparations of D5D-overexpressing HEK293 6E cells (Homo sapiens, UniProt O60427).
T1 construct: expressed in transfected cells; host or cells: HEK293 6E cells (membrane preparation)
Nature of the assay: In vitro measurement of Delta-5-Desaturase inhibitory activity using DGLA-CoA and Arachidonyl-CoA mass spectrometric assays. It is filed as biochemical. The settings on record: D5D membrane 10 μg/mL, one-hour incubation, average of at least two independent runs. How it is done: In Vitro Measurement of Delta-5-Desaturase Inhibitory Activity Using DGLA-CoA and Arachidonyl-CoA Mass Spectrometric Assays Membrane preparations of D5D-overexpressing HEK293 6E cells were prepared in which the total protein concentration was 5.6 mg/mL. Stock D5D membrane preparations were diluted in D5D assay buffer (25 mM 2-amino-2-(hydroxymethyl)-1,3-propanediol, pH 7.5 containing 10 mM MgCl2, 1 mM octyl glucoside (SigmaAldrich O-8001), 1 mM tris(2-carboxyethyl)phosphine hydrochloride (SigmaAldrich 646547)) to a final D5D membrane concentration of 10 μg/mL in an assay plate containing serially diluted test compounds. To 15 μL of this D5D preparation was added 15 μL of a substrate solution (0.25 mM NADH (nicotinamide adenine dinucleotide, Roche Diag. 10107735001), 0.25 mM adenosine triphosphate (SigmaAldrich A-3377), 0.05 mM coenzyme A hydrate (SigmaAldrich C-4282), and 0.01 mM DGLA (dihomo-g-linolenic acid, Sigma E-4504) in the same D5D assay buffer. After one-hour incubation at ambient temperature acetonitrile (30 μL) was added to quench the reaction and plates were centrifuged for 10 min @ 3,000 rpm. Mass spectrometric analysis involved a Rapidfire 360 SPE system coupled to an ABSciex API4000 Triple Quadrupole mass spectrometer using a C18 SPE cartridge (G9203-80105) with ionization in negative mode (solvent A=100% water; solvent B=100% acetonitrile, each solvent containing 5 mM ammonium acetate). DGLA-CoA and Arachidonyl-CoA were detected by multiple reaction monitoring (MRM) of the doubly charged parent ions at m/z 526.6 and 525.6, respectively. […] Sx is value from unknown sample, So is value from DMSO alone and Sc is value from no enzyme well. For CRC analysis, the % of inhibitions were analysed with 4 Parameter Logistic Model or Sigmoidal Dose-Response Model using XLfit (IDBS, Guilford, UK). The potency of the test item was expressed as IC50 nM, corresponding to the test item concentration able to inhibit the 50% of the enzyme maximal response. IC50 values were averaged values determined by at least two independent runs. The results presented in Table 15 have been generated with the in vitro assay described above. This assay may be used to test any of the compounds described herein to assess and characterize a compound's ability to inhibit D5D.
By IC50 is commonly meant the concentration needed to halve the response being measured. Higher therefore signals weaker potency. In turn, `Cc1cc2nc(C(F)(F)F)c(-c3cnn(CC(F)(F)C(F)(F)F)c3)c(=O)n2n1C` [Example 16, 1,2-dimethyl-6-[1-(2,2,3,3,3-pentafluoropropyl)-1H-pyrazol-4-yl]-5-(trifluoromethyl)-1H,7H-pyrazolo[1,5-a]pyrimidin-7-one] came in with an IC50 of 9410 nM.
To `Cc1cn2c(=O)c(-c3cnn(CC(F)(F)C(F)(F)F)c3)c(C(F)(F)F)nc2n1CC1COC1` [Example 90, 2-methyl-1-[(oxetan-3-yl)methyl]-6-[1-(2,2,3,3,3-pentafluoropropyl)-1H-pyrazol-4-yl]-7-(trifluoromethyl)-1H,5H-imidazo[1,2-a]pyrimidin-5-one] belongs 105 nM; to `Cc1cn2c(=O)c(-c3cnn(CC(F)(F)C(F)(F)F)c3)c(C(F)(F)F)nc2n1-c1cnn(C)c1` [Example 97, 2-methyl-1-(1-methyl-1H-pyrazol-4-yl)-6-[1-(2,2,3,3,3-pentafluoropropyl)-1H-pyrazol-4-yl]-7-(trifluoromethyl)-1H,5H-imidazo[1,2-a]pyrimidin-5-one], 29.3 nM; to `Cc1cn2c(=O)c(-c3cnn(CC(F)(F)C(F)(F)F)c3)c(C(F)(F)F)nc2n1CC(C)(C)O` [Example 88, 1-(2-hydroxy-2-methylpropyl)-2-methyl-6-[1-(2,2,3,3,3-pentafluoropropyl)-1H-pyrazol-4-yl]-7-(trifluoromethyl)-1H,5H-imidazo[1,2-a]pyrimidin-5-one], 631 nM.
Compound `Cc1cn(C)n2c(=O)c(-c3cnn(CC(F)(F)C(F)(F)F)c3)c(C(F)(F)F)nc12` [Example 18, 1,3-dimethyl-6-[1-(2,2,3,3,3-pentafluoropropyl)-1H-pyrazol-4-yl]-5-(trifluoromethyl)-1H,7H-pyrazolo[1,5-a]pyrimidin-7-one] gave an IC50 of 3630 nM.
To `Cn1ccn2c(=O)c(-c3cnn(CC(F)(F)C(F)(F)F)c3)c(C(F)(F)F)nc12` [Example 37, 1-methyl-6-[1-(2,2,3,3,3-pentafluoropropyl)-1H-pyrazol-4-yl]-7-(trifluoromethyl)-1H,5H-imidazo[1,2-a]pyrimidin-5-one] belongs 11.5 nM.
To `CN(C)Cc1nn2c(=O)c(-c3cnn(CC(F)(F)C(F)(F)F)c3)c(C(F)(F)F)nc2s1` [Example 105, 2-[(dimethylamino)methyl]-6-[1-(2,2,3,3,3-pentafluoropropyl)-1H-pyrazol-4-yl]-7-(trifluoromethyl)-5H-[1,3,4]thiadiazolo[3,2-a]pyrimidin-5-one] belongs 10500 nM; to `O=c1c(-c2cnn(CC(F)(F)C(F)(F)F)c2)c(C(F)(F)F)nc2[nH]c(Cl)cn12` [Example 49, 2-chloro-6-[1-(2,2,3,3,3-pentafluoropropyl)-1H-pyrazol-4-yl]-7-(trifluoromethyl)-1H,5H-imidazo[1,2-a]pyrimidin-5-one], 331 nM.
To `Cc1cn2c(=O)c(-c3cnn(CC4CC4(F)F)c3)c(C(F)(F)F)nc2n1C` (stereo not shown) [Example 59, 6-{1-[(2,2-difluorocyclopropyl)methyl]-1H-pyrazol-4-yl}-1,2-dimethyl-7-(trifluoromethyl)-1H,5H-imidazo[1,2-a]pyrimidin-5-one] belongs 11 nM; to `CCOc1nc2sc(C)nn2c(=O)c1-c1cnn(CC(F)(F)C(F)(F)F)c1` [Example 41, 7-ethoxy-2-methyl-6-[1-(2,2,3,3,3-pentafluoropropyl)-1H-pyrazol-4-yl]-5H-[1,3,4]thiadiazolo[3,2-a]pyrimidin-5-one], 877 nM; to `O=c1c(-c2cnn(CCC(F)(F)F)c2)c(C(F)(F)F)nc2sc(C3CC3)nn12` [Example 12, 2-cyclopropyl-7-(trifluoromethyl)-6-[1-(3,3,3-trifluoropropyl)-1H-pyrazol-4-yl]-5H-[1,3,4]thiadiazolo[3,2-a]pyrimidin-5-one], 248 nM.
Turning to `Cc1cn2c(=O)c(-c3cnn(CCC(F)(F)F)c3)c(C(F)(F)F)nc2n1C[C@H]1CC1(F)F` (single isomer, unassigned) [Example 116], the IC50 is 1170 nM.
To `Cc1cn2c(=O)c(-c3cnn(CCC(F)(F)F)c3)c(C(F)(F)F)nc2[nH]1` [Example 74, 2-methyl-7-(trifluoromethyl)-6-[1-(3,3,3-trifluoropropyl)-1H-pyrazol-4-yl]-1H,5H-imidazo[1,2-a]pyrimidin-5-one] belongs 4.7 nM.
To `COCc1cn2c(=O)c(-c3cnn(CC(F)(F)C(F)(F)F)c3)c(C(F)(F)F)nc2n1C` [Example 55, 2-(methoxymethyl)-1-methyl-6-[1-(2,2,3,3,3-pentafluoropropyl)-1H-pyrazol-4-yl]-7-(trifluoromethyl)-1H,5H-imidazo[1,2-a]pyrimidin-5-one] belongs 210 nM.
To `CNCc1nn2c(=O)c(-c3cnn(CC(F)(F)C(F)(F)F)c3)c(C(F)(F)F)nc2s1` [Example 106, 2-[(methylamino)methyl]-6-[1-(2,2,3,3,3-pentafluoropropyl)-1H-pyrazol-4-yl]-7-(trifluoromethyl)-5H-[1,3,4]thiadiazolo[3,2-a]pyrimidin-5-one] belongs 61500 nM; to `Cc1nn2c(=O)c(-c3cnn(CCC(F)(F)F)c3)c(C(F)(F)F)nc2n1C` [Example 14, 2,3-dimethyl-5-(trifluoromethyl)-6-[1-(3,3,3-trifluoropropyl)-1H-pyrazol-4-yl]-3H,7H-[1,2,4]triazolo[1,5-a]pyrimidin-7-one], 1430 nM; to `Cc1cn2c(=O)c(-c3ccc(OCC(F)(F)F)cc3)c(C(F)(F)F)nc2n1CCN(C)C` [Example 69, 1-[2-(dimethylamino)ethyl]-2-methyl-6-[4-(2,2,2-trifluoroethoxy)phenyl]-7-(trifluoromethyl)-1H,5H-imidazo[1,2-a]pyrimidin-5-one], 13500 nM.
In the case of `O=c1c(-c2cnn(CC(F)(F)C(F)(F)F)c2)c(C(F)(F)F)nc2scc(C(F)(F)F)n12` [Example 6, 6-[1-(2,2,3,3,3-pentafluoropropyl)-1H-pyrazol-4-yl]-3,7-bis(trifluoromethyl)-5H-[1,3]thiazolo[3,2-a]pyrimidin-5-one], the IC50 is 271 nM.
To `Cc1cn2c(=O)c(-c3cnn(CC4COC4)c3)c(C(F)(F)F)nc2n1C` [Example 65, 1,2-dimethyl-6-{1-[(oxetan-3-yl)methyl]-1H-pyrazol-4-yl}-7-(trifluoromethyl)-1H,5H-imidazo[1,2-a]pyrimidin-5-one] belongs 815 nM; to `COC(=O)n1c(C)cn2c(=O)c(-c3cnn(CC(F)(F)C(F)(F)F)c3)c(C(F)(F)F)nc12` [Example 80, methyl 2-methyl-5-oxo-6-[1-(2,2,3,3,3-pentafluoropropyl)-1H-pyrazol-4-yl]-7-(trifluoromethyl)-1H,5H-imidazo[1,2-a]pyrimidine-1-carboxylate], 54.7 nM.
To `O=c1c(-c2cnn(CC(F)(F)C(F)(F)F)c2)c(C(F)(F)F)nc2sc(Cl)cn12` [Example 9, 2-chloro-6-[1-(2,2,3,3,3-pentafluoropropyl)-1H-pyrazol-4-yl]-7-(trifluoromethyl)-5H-[1,3]thiazolo[3,2-a]pyrimidin-5-one] belongs 6.4 nM; to `Cc1cn2c(=O)c(-c3cnn(CCC(F)(F)F)c3)c(C(F)(F)F)nc2n1-c1ccccn1` [Example 94, 2-methyl-1-(pyridin-2-yl)-7-(trifluoromethyl)-6-[1-(3,3,3-trifluoropropyl)-1H-pyrazol-4-yl]-1H,5H-imidazo[1,2-a]pyrimidin-5-one], 777 nM.

For the origin of these results see patent publication US11512097B2, “Heterocyclic compounds as Delta-5 desaturase inhibitors and methods of use” (Amgen Inc., priority 2019, dated 2022).
